# Measurements as given in patent US9199914B2, “Multiple substituted fluoromethanes as selective and bioactive isosteres” (MEH ASSOCIATES, INC., priority 2010, dated 2015).
# Like-named read-outs stand apart in the source and are kept apart here.
# Key:
# Assay type in all cases: cell-based
# [1] = test system: Trypanosoma brucei rhodesiense; STIB 900; assay: microbe, parasite or virus in culture
# [2] = test system: T. cruzi Tulahuen C2C4, containing the Lac Z gene; assay: In vitro sensitivity assay: T. cruzi (Lac Z / CPRG, in L-6 cells); conditions: Trypanosoma cruzi, L6; Tulahuen C4, amastigotes in L-6 cells
# [3] = test system: L. donovani MHOM-ET-67/L82, axenic amastigotes; assay: In vitro sensitivity assay: axenic Leishmania donovani (Resazurin)
# [4] = test system: L-6 (rat skeletal myoblast cells); assay: cells
# Plasmodium falciparum K1 = assay: microbe, parasite or virus in culture
# [5] = MHOM-ET-67/L82, amastigotes, 72 hours, read-out: IC50 Values L. donovani
smiles,measurement,setting,value
"O=C(O)CNCCC(F)(F)F [MEH-002, (3,3,3-Trifluoro-propylamino)-acetic acid]",IC50,"[1]; STIB 900, trypomastigotes, 72 h, read-out: IC50 Values T.b. rhodensiense",10.3 µg/mL
same,IC50,[2],> 90 µg/mL
same,IC50,[3]; [5],> 90 µg/mL
same,IC50,"[4]; L6 cells, read-out: IC50 Values Cytoxicity",> 90 µg/mL
same,IC50,"Plasmodium falciparum K1; K1, IEF, read-out: IC50 Values P. falciparum",> 5 µg/mL
"CCN(CC)CCCC(C)Nc1ccnc2cc(Cl)ccc12 (stereo not shown) [chloroquinine, Chloroquine]",IC50,"Plasmodium falciparum K1; K1, read-out: IC50 Values P. falciparum",0.059 µg/mL
same,IC50,"Plasmodium falciparum K1; K1, read-out: average IC50",0.065 µg/mL
Nc1nc(N)nc(Nc2ccc([As]3SCC(CO)S3)cc2)n1 (stereo not shown) [melarsoprol],IC50,"[1]; 72 h, read-out: IC50 Values T.b. rhodensiense",0.003 µg/mL
same,IC50,[1]; read-out: average IC50,0.004 µg/mL
CCCCCCCCCCCCCCCCOP(=O)([O-])OCC[N+](C)(C)C [miltefosine],IC50,[3]; [5],0.178 µg/mL
same,IC50,"[3]; standard drug, protocol value, read-out: average IC50",0.131 µg/mL
COc1cc([C@@H]2c3cc4c(cc3[C@H](O)[C@H]3COC(=O)[C@H]23)OCO4)cc(OC)c1OC [podophyllotoxin],IC50,"[4]; L6, read-out: IC50 Values Cytoxicity",0.007 µg/mL
same,IC50,"[4]; Myoblast, read-out: average IC50",0.006 µg/mL
